Where “and” joins values, the source holds several entries; their conditions need not be identical. Identical values can stand only once. Numbers after ± are expanded uncertainties.
Settings: Liquid

Question: Which “vapor or sublimation pressure” value (323.11 K) does the source give for CCC(C)O (centres undefined) [butan-2-ol] here?
Answer: The value was 10.57 ± 0.34 kPa.

Question: With CO [methanol] as the molecule, how does the “vapor or sublimation pressure” value (323.14 K) read?
Answer: Its value is 55.57 ± 0.41 kPa.

Question: Which “vapor or sublimation pressure” value (322.78 K) does the source give for CC(C)(C)O [2-methylpropan-2-ol] here?
Answer: The value was 23.07 ± 0.35 kPa.

Question: For CCO [ethanol], which “vapor or sublimation pressure” value (323.17 K) is on record?
Answer: Its value is 29.27 ± 0.36 kPa.

Question: For CC(C)O [propan-2-ol], which “vapor or sublimation pressure” value (323.16 K) is on record?
Answer: The value was 23.47 ± 0.35 kPa.

Question: For C=C(C)C [2-methylpropene], which “vapor or sublimation pressure” value (322.79 K) is on record?
Answer: Its value is 605.14 ± 2 kPa.

Question: What about the “vapor or sublimation pressure” value (323.11 K) of the same molecule?
Answer: Its value is 608.94 ± 2 kPa.

Question: And the “vapor or sublimation pressure” value (323.14 K)?
Answer: Its value is 608.84 ± 2 kPa and 609.14 ± 2 kPa.

Question: And the “vapor or sublimation pressure” value (323.15 K)?
Answer: The value was 611.04 ± 2.1 kPa.

— the NIST ThermoML archive (doi:10.1021/je034136z)
